Experimental data: paper PMC7402526, “An in vitro quantitative systems pharmacology approach for deconvolving mechanisms of drug-induced, multilineage cytopenias” (PLoS Computational Biology, 2020)

Tests used:
[1] = test system: hematopoietic stem cells (HSCs); assay: Multi-lineage toxicity assay (MLTA), HSCs: concentration-response and QSP model fit; assay type: cell-based, human; design: EmaxAP,HSC / EmaxT,HSC / Emax_drug_HSC: unitless, 0–2; ≤1 anti-proliferative, >1 adds cell killing
Outline: (§1)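 Parameters come from fitting an Emax-based QSP model, with L1 regularization and Emax ranging 0–2, to vehicle-normalized, bead-corrected flow cytometry counts. Counts came from human bone marrow CD34+ cells treated from day 0 through a 6-day multi-lineage cytokine culture in SFEM II, using 2–7 donors per drug.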

[2] = test system: multi-potent progenitors (MPPs); assay: MLTA, MPPs: concentration-response and QSP model fit; assay type: cell-based, human; conditions: Homo sapiens, 144 h
Outline: as §1

[3] = test system: granulocyte-macrophage progenitor (GMPs); assay: MLTA, GMPs: concentration-response and QSP model fit; assay type: cell-based, human; conditions: Homo sapiens, 144 h, 6 days, normalized to vehicle control, read-out: GMPs normalized cell count
Outline: as §1

granulocytes (Gran-lin) = assay: MLTA, Gran: concentration-response and QSP model fit; assay type: cell-based, human; conditions: Homo sapiens, 144 h
Outline: (§2)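 Six-day flow cytometry counts, bead-normalized and expressed relative to the mean of six vehicle wells, underlie each value. Cells were primary human bone marrow CD34+ cells cultured in SFEM II with cytokines promoting multi-lineage differentiation and self-renewal.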

monocytes (monocyte-lin) = assay: MLTA, Mono: concentration-response and QSP model fit; assay type: cell-based, human; conditions: Homo sapiens, Monocyte, 144 h
Outline: as §2

[4] = test system: lymphocyte progenitors (LymP); assay: MLTA, LymP: concentration-response and QSP model fit; assay type: cell-based, human; conditions: Homo sapiens, Lymphocyte, 144 h
Outline: as §1

B cells (B-lin) = assay: MLTA, B-lin: concentration-response and QSP model fit; assay type: cell-based, human; conditions: Homo sapiens, B-cell, 144 h
Outline: as §1

[5] = test system: total dead cells (totalDeadCells); assay: MLTA, total dead cells concentration-response; assay type: cell-based; conditions: Homo sapiens, 144 h, 6 days, normalized to vehicle control, read-out: total_dead normalized cell count
Outline: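 Freeze-thawed primary human bone marrow CD34+ cells in SFEM II with cytokine cocktail, drug added day 0, 6 days at 37°C, 5% CO2. Live/dead counts by 17-parameter flow cytometry with DAPI exclusion, bead-normalized, volume-corrected to cells/mL. Normalized per donor to mean of six vehicle wells; 2–7 donors pooled.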

Question: With `CCc1cnn2c(NCc3ccc[n+]([O-])c3)cc(N3CCCC[C@H]3CCO)nc12` [dinaciclib] as the compound, how does the activity at 0.0002 µM ([1]; Homo sapiens, Hematopoietic stem cell, 144 h, dose 0.2 nM, 6 days, normalized to vehicle control, read-out: HSCs normalized cell count) read?
Answer: 89.5%

Question: And the activity at 0.001 µM ([1]; Homo sapiens, Hematopoietic stem cell, 144 h, dose 1 nM, 6 days, normalized to vehicle control, read-out: HSCs normalized cell count)?
Answer: 106%

Question: And the activity at 0.005 µM ([1]; Homo sapiens, Hematopoietic stem cell, 144 h, dose 5 nM, 6 days, normalized to vehicle control, read-out: HSCs normalized cell count)?
Answer: 115%

Question: What about the activity at 0.025 µM ([1]; Homo sapiens, Hematopoietic stem cell, 144 h, dose 25 nM, 6 days, normalized to vehicle control, read-out: HSCs normalized cell count) of the same compound?
Answer: 61.2%

Question: What about the activity at 0.1 µM ([1]; Homo sapiens, Hematopoietic stem cell, 144 h, dose 100 nM, 6 days, normalized to vehicle control, read-out: HSCs normalized cell count) of the same compound?
Answer: 1.89%

Question: What about the activity at 0.5 µM ([1]; Homo sapiens, Hematopoietic stem cell, 144 h, dose 500 nM, 6 days, normalized to vehicle control, read-out: HSCs normalized cell count) of the same compound?
Answer: 5.17%

Question: What about the activity at 2.5 µM ([1]; Homo sapiens, Hematopoietic stem cell, 144 h, dose 2500 nM, 6 days, normalized to vehicle control, read-out: HSCs normalized cell count) of the same compound?
Answer: 1.3%

Question: What about the Emax ([1]; Homo sapiens, Hematopoietic stem cell, 144 h, parameter from QSP model fitting, read-out: Emax_drug_HSC) of the same compound?
Answer: 103%

Question: And the “EmaxAP,HSC” value ([1]; anti-proliferation component, min(1, EmaxT))?
Answer: 1.000

Question: And the activity at 0.0002 µM ([2]; dose 0.2 nM, 6 days, normalized to vehicle control, read-out: MPPs normalized cell count)?
Answer: 94.1%

Question: What about the activity at 0.001 µM ([2]; dose 1 nM, 6 days, normalized to vehicle control, read-out: MPPs normalized cell count) of the same compound?
Answer: 104%

Question: What about the activity at 0.005 µM ([2]; dose 5 nM, 6 days, normalized to vehicle control, read-out: MPPs normalized cell count) of the same compound?
Answer: 96.7%

Question: And the activity at 0.025 µM ([2]; dose 25 nM, 6 days, normalized to vehicle control, read-out: MPPs normalized cell count)?
Answer: 53.4%

Question: What about the activity at 0.1 µM ([2]; dose 100 nM, 6 days, normalized to vehicle control, read-out: MPPs normalized cell count) of the same compound?
Answer: 2.71%

Question: And the activity at 0.5 µM ([2]; dose 500 nM, 6 days, normalized to vehicle control, read-out: MPPs normalized cell count)?
Answer: 2.67%

Question: And the activity at 2.5 µM ([2]; dose 2500 nM, 6 days, normalized to vehicle control, read-out: MPPs normalized cell count)?
Answer: 0.896%

Question: And the Emax ([2]; parameter from QSP model fitting, read-out: Emax_drug_MPP)?
Answer: 69.4%

Question: And the activity at 0.0002 µM ([3]; dose 0.2 nM)?
Answer: 87%

Question: And the activity at 0.001 µM ([3]; dose 1 nM)?
Answer: 111%

Question: And the activity at 0.005 µM ([3]; dose 5 nM)?
Answer: 87.6%

Question: And the activity at 0.025 µM ([3]; dose 25 nM)?
Answer: 40.3%

Question: And the activity at 0.1 µM ([3]; dose 100 nM)?
Answer: 0.755%

Question: What about the activity at 0.5 µM ([3]; dose 500 nM) of the same compound?
Answer: 1.71%

Question: What about the activity at 2.5 µM ([3]; dose 2500 nM) of the same compound?
Answer: 0.744%

Question: And the activity at 0.0002 µM (granulocytes (Gran-lin); dose 0.2 nM, 6 days, normalized to vehicle control, read-out: Gran normalized cell count)?
Answer: 96.8%

Question: What about the activity at 0.001 µM (granulocytes (Gran-lin); dose 1 nM, 6 days, normalized to vehicle control, read-out: Gran normalized cell count) of the same compound?
Answer: 120%

Question: And the activity at 0.005 µM (granulocytes (Gran-lin); dose 5 nM, 6 days, normalized to vehicle control, read-out: Gran normalized cell count)?
Answer: 121%

Question: What about the activity at 0.025 µM (granulocytes (Gran-lin); dose 25 nM, 6 days, normalized to vehicle control, read-out: Gran normalized cell count) of the same compound?
Answer: 32.8%

Question: What about the activity at 0.1 µM (granulocytes (Gran-lin); dose 100 nM, 6 days, normalized to vehicle control, read-out: Gran normalized cell count) of the same compound?
Answer: 0.0467%

Question: What about the activity at 0.5 µM (granulocytes (Gran-lin); dose 500 nM, 6 days, normalized to vehicle control, read-out: Gran normalized cell count) of the same compound?
Answer: 0.0554%

Question: And the activity at 2.5 µM (granulocytes (Gran-lin); dose 2500 nM, 6 days, normalized to vehicle control, read-out: Gran normalized cell count)?
Answer: 0.0385%

Question: What about the Emax (granulocytes (Gran-lin); parameter from QSP model fitting, read-out: Emax_drug_Gran) of the same compound?
Answer: 201%

Question: What about the activity at 0.0002 µM (monocytes (monocyte-lin); dose 0.2 nM, 6 days, normalized to vehicle control, read-out: Mon normalized cell count) of the same compound?
Answer: 90.7%

Question: What about the activity at 0.001 µM (monocytes (monocyte-lin); dose 1 nM, 6 days, normalized to vehicle control, read-out: Mon normalized cell count) of the same compound?
Answer: 106%

Question: What about the activity at 0.005 µM (monocytes (monocyte-lin); dose 5 nM, 6 days, normalized to vehicle control, read-out: Mon normalized cell count) of the same compound?
Answer: 69.5%

Question: And the activity at 0.025 µM (monocytes (monocyte-lin); dose 25 nM, 6 days, normalized to vehicle control, read-out: Mon normalized cell count)?
Answer: 8.55%

Question: What about the activity at 0.1 µM (monocytes (monocyte-lin); dose 100 nM, 6 days, normalized to vehicle control, read-out: Mon normalized cell count) of the same compound?
Answer: 0.496%

Question: What about the activity at 0.5 µM (monocytes (monocyte-lin); dose 500 nM, 6 days, normalized to vehicle control, read-out: Mon normalized cell count) of the same compound?
Answer: 0.834%

Question: And the activity at 2.5 µM (monocytes (monocyte-lin); dose 2500 nM, 6 days, normalized to vehicle control, read-out: Mon normalized cell count)?
Answer: 0.535%

Question: What about the Emax (monocytes (monocyte-lin); parameter from QSP model fitting, read-out: Emax_drug_Mono) of the same compound?
Answer: 48.2%

Question: And the activity at 0.0002 µM ([4]; dose 0.2 nM, 6 days, normalized to vehicle control, read-out: LymP normalized cell count)?
Answer: 89.4%

Question: And the activity at 0.001 µM ([4]; dose 1 nM, 6 days, normalized to vehicle control, read-out: LymP normalized cell count)?
Answer: 105%

Question: And the activity at 0.005 µM ([4]; dose 5 nM, 6 days, normalized to vehicle control, read-out: LymP normalized cell count)?
Answer: 99.3%

Question: What about the activity at 0.025 µM ([4]; dose 25 nM, 6 days, normalized to vehicle control, read-out: LymP normalized cell count) of the same compound?
Answer: 38.3%

Question: And the activity at 0.1 µM ([4]; dose 100 nM, 6 days, normalized to vehicle control, read-out: LymP normalized cell count)?
Answer: 3.05%

Question: What about the activity at 0.5 µM ([4]; dose 500 nM, 6 days, normalized to vehicle control, read-out: LymP normalized cell count) of the same compound?
Answer: 7.81%

Question: What about the activity at 2.5 µM ([4]; dose 2500 nM, 6 days, normalized to vehicle control, read-out: LymP normalized cell count) of the same compound?
Answer: 2.53%

Question: What about the Emax ([4]; parameter from QSP model fitting, read-out: Emax_drug_LymP) of the same compound?
Answer: 115%

Question: And the activity at 0.0002 µM (B cells (B-lin); dose 0.2 nM, 6 days, normalized to vehicle control, read-out: B-lin normalized cell count)?
Answer: 81.8%

Question: And the activity at 0.001 µM (B cells (B-lin); dose 1 nM, 6 days, normalized to vehicle control, read-out: B-lin normalized cell count)?
Answer: 90.4%

Question: And the activity at 0.005 µM (B cells (B-lin); dose 5 nM, 6 days, normalized to vehicle control, read-out: B-lin normalized cell count)?
Answer: 90.4%

Question: What about the activity at 0.025 µM (B cells (B-lin); dose 25 nM, 6 days, normalized to vehicle control, read-out: B-lin normalized cell count) of the same compound?
Answer: 11.7%

Question: What about the activity at 0.1 µM (B cells (B-lin); dose 100 nM, 6 days, normalized to vehicle control, read-out: B-lin normalized cell count) of the same compound?
Answer: 0.127%

Question: And the activity at 0.5 µM (B cells (B-lin); dose 500 nM, 6 days, normalized to vehicle control, read-out: B-lin normalized cell count)?
Answer: 0.514%

Question: What about the activity at 2.5 µM (B cells (B-lin); dose 2500 nM, 6 days, normalized to vehicle control, read-out: B-lin normalized cell count) of the same compound?
Answer: 0.106%

Question: What about the Emax (B cells (B-lin); parameter from QSP model fitting, read-out: Emax_drug_B) of the same compound?
Answer: 77.4%

Question: What about the activity at 0.0002 µM ([5]; dose 0.2 nM) of the same compound?
Answer: 108%

Question: What about the activity at 0.001 µM ([5]; dose 1 nM) of the same compound?
Answer: 106%

Question: And the activity at 0.005 µM ([5]; dose 5 nM)?
Answer: 78.9%

Question: What about the activity at 0.025 µM ([5]; dose 25 nM) of the same compound?
Answer: 34.8%

Question: And the activity at 0.1 µM ([5]; dose 100 nM)?
Answer: 38.7%

Question: What about the activity at 0.5 µM ([5]; dose 500 nM) of the same compound?
Answer: 34.1%

Question: What about the activity at 2.5 µM ([5]; dose 2500 nM) of the same compound?
Answer: 39.6%
